What was measured:
NCI-H1703 [1] = experiment: Induction of ferroptosis in human NCI-H1703 cells assessed as cell viability incubated for 72 hrs by CellTiter-Glo luminescent cell viability assay; assay type: functional, cell-based; settings: NCI-H1703, 72 h
NCI-H1703 [2] = experiment: Induction of ferroptosis in human NCI-H1703 cells assessed as cell viability incubated for 72 hrs in presence of ferrostatin-1 by CellTiter-Glo luminescent cell viability assay; assay type: functional, cell-based; settings: NCI-H1703, 72 h
[3] = Metabolic stability in mouse liver microsomes assessed as unbound intrinsic clearance; assay type: ADME, Microsome
[4] = Metabolic stability in human liver microsomes assessed as unbound intrinsic clearance; assay type: ADME, Microsome
[5] = Unbound fraction in human plasma; assay type: ADME, cell-free
[6] = Unbound fraction in mouse plasma; assay type: ADME, cell-free
[7] = Stability in mouse plasma assessed as half life; assay type: ADME, cell-free
[8] = Stability in human plasma assessed as half life; assay type: ADME, cell-free
[9] = Aqueous solubility of the compound at pH 7; assay type: physicochemical
[10] = Aqueous solubility of the compound at pH 1; assay type: physicochemical
[11] = Half life in CB17 SCID-Beige mouse subcutaneously inoculated with WSUDLCL2 cells at 30 mg/kg, ip; assay type: ADME, organism-based; settings: in vivo
[12] = Cmax in CB17 SCID-Beige mouse subcutaneously inoculated with WSUDLCL2 cells at 30 mg/kg, ip; assay type: ADME, organism-based; design: dose 30 mg/kg, route ip; settings: in vivo
[13] = AUC in CB17 SCID-Beige mouse subcutaneously inoculated with WSUDLCL2 cells at 30 mg/kg, ip; assay type: ADME, organism-based; design: dose 30 mg/kg, route ip; settings: in vivo

Structure (SMILES) | EC50 (NCI-H1703 [1]) [nM] | EC50 (NCI-H1703 [2]) [nM] | CL free [3] [mL/min/kg] | CL free [4] [mL/min/kg] | fraction unbound [5] | fraction unbound [6] | half-life [7] [h] | half-life [8] [h] | solubility [9] [µM] | solubility [10] [µM] | half-life [11] [h] | Cmax [12] [ng/mL] | AUC [13] [µg/h/mL]
COC(=O)[C@H]1Cc2c([nH]c3ccccc23)[C@H](C2CCOCC2)N1C(=O)CCl | 3130 | > 10000 | 353 | 33 | 0.31 | 0.24 |  |  |  |  |  |  | 
COC(=O)[C@H]1Cc2c([nH]c3ccccc23)[C@H](c2ccc(F)cc2Cl)N1C(=O)CCl | 28 | > 10000 |  |  |  |  |  |  |  |  |  |  | 
COC(=O)[C@H]1Cc2c([nH]c3ccccc23)[C@H](c2cccc(S(C)(=O)=O)c2)N1C(=O)CCl | 570 | 5660 | 563 | 45 |  |  | 0.167 | 4.23 |  |  |  |  | 
COC(=O)[C@H]1Cc2c([nH]c3ccccc23)[C@H](c2ccc(S(C)(=O)=O)cn2)N1C(=O)CCl | 973 | > 10000 | 348 | 35 |  |  | 1.33 | 4.03 |  |  |  |  | 
Cc1noc([C@H]2Cc3c([nH]c4ccccc34)[C@H](c3ccc(S(C)(=O)=O)cc3)N2C(=O)CCl)n1 | 37 | 2340 | 243 | 31.7 |  |  | 1.85 | 2.92 |  |  |  |  | 
COC(=O)[C@H]1Cc2c([nH]c3ccccc23)[C@H](c2ccccc2)N1C(=O)CCl | 116 | > 10000 |  |  |  |  |  |  |  |  |  |  | 

Continued, values first:

EC50 (NCI-H1703 [1]) [nM] | EC50 (NCI-H1703 [2]) [nM] | CL free [3] [mL/min/kg] | CL free [4] [mL/min/kg] | fraction unbound [5] | fraction unbound [6] | half-life [7] [h] | half-life [8] [h] | solubility [9] [µM] | solubility [10] [µM] | half-life [11] [h] | Cmax [12] [ng/mL] | AUC [13] [µg/h/mL] | Structure (SMILES)
107 | 3950 |  |  |  |  |  |  |  |  |  |  |  | COC(=O)[C@H]1Cc2c([nH]c3ccccc23)[C@H](c2ccc(F)cc2F)N1C(=O)CCl
265 | > 10000 | 5810 | 505 | 0.011 |  | 2.77 | 6.18 |  |  |  |  |  | CC(C)OC(=O)[C@H]1Cc2c([nH]c3ccccc23)[C@H](c2ccccc2)N1C(=O)CCl
44 | > 10000 | 910 | 118 | 0.013 |  | 2.68 | 6.73 |  |  |  |  |  | Cc1noc([C@H]2Cc3c([nH]c4ccccc34)[C@H](c3ccccc3)N2C(=O)CCl)n1
75 | 4270 |  |  |  |  |  |  |  |  |  |  |  | COC(=O)[C@H]1Cc2c([nH]c3ccccc23)[C@H](c2ccc(OC(F)(F)F)cc2)N1C(=O)CCl
118 | 2450 | 235 | 28.3 |  |  | 2.77 | 3.33 | > 200 |  |  |  |  | COC(=O)[C@H]1Cc2c([nH]c3ccccc23)[C@H](c2ccc(S(C)(=O)=O)nc2)N1C(=O)CCl
37 | 3250 | 2962 | 1420 |  |  | 4.38 | > 16 | < 0.8 | < 0.8 | 1.4 | 410 | 1.53 | COC(=O)[C@H]1Cc2c([nH]c3ccccc23)[C@H](c2ccc(C(F)(F)F)cc2)N1C(=O)CCl
> 10000 |  | 905 | 76.7 |  |  | 1.05 | 0.933 |  |  |  |  |  | C=CC(=O)N1[C@@H](c2ccccc2)c2[nH]c3ccccc3c2C[C@@H]1C(=O)OC

Reference: ChEMBL document CHEMBL5375942, “Discovery of a Potent Chloroacetamide GPX4 Inhibitor with Bioavailability to Enable Target Engagement in Mice, a Potential Tool Compound for Inducing Ferroptosis In Vivo” (J Med Chem, 2023)
